# Measurements published in PMC4306947, “Synthesis and Antiproliferative Activity of Thiazolyl-bis-pyrrolo[2,3-b]pyridines and Indolyl-thiazolyl-pyrrolo[2,3-c]pyridines, Nortopsentin Analogues” (Marine Drugs, 2015).
# What was measured:
# [1] = test system: M14; assay: NCI-60 in vitro tumor cell screen, M14; assay type: cell-based; conditions: Homo sapiens; M14, Melanoma
# Method: (§1) All the synthesized thiazoles 1a–l, 2a–j, 3a–f and 4a–f were evaluated by the National Cancer Institute (Bethesda MD) for cytotoxicity against the NCI-60 cell line panel using standard protocols. Initially, all derivatives were tested at a single dose (10^−5 M) on the full panel of approximately 60 human tumor cell lines derived from 9 human cancer cell types, that have been grouped in disease sub-panels including leukemia, non-small-cell lung, colon, central nervous system (CNS), melanoma, ovarian, renal, prostate and breast cancers (data not shown). Compounds 1k and 4c were further selected for full evaluation at five concentration levels (10^−4–10^−8 M).
# (§2) The antitumor activity of compounds 1k and 4c was given by three parameters for each cell line: GI50 (GI50 is the molar concentration of the compound that inhibits 50% net cell growth), TGI (TGI is the molar concentration of the compound leading to total inhibition of net cell growth), and LC50 (LC50 is the molar concentration of the compound that induces 50% net cell death). The average values of mean graph midpoint (MG_MID) were calculated for each of these parameters.
# [2] = test system: IGROV1; assay: NCI-60 in vitro tumor cell screen, IGROV1; assay type: cell-based; conditions: Homo sapiens, IGROV-1; IGROV1, Ovarian Cancer
# Method: as §1, §2
# [3] = test system: RPMI-8226; assay: NCI-60 in vitro tumor cell screen, RPMI-8226; assay type: cell-based; conditions: Homo sapiens; RPMI-8226, Leukemia
# Method: as §1, §2
# [4] = test system: OVCAR-8; assay: NCI-60 in vitro tumor cell screen, OVCAR-8; assay type: cell-based; conditions: Homo sapiens; OVCAR-8, Ovarian Cancer
# Method: as §1, §2
# [5] = test system: MDA-MB-468; assay: NCI-60 in vitro tumor cell screen, MDA-MB-468; assay type: cell-based; conditions: Homo sapiens; MDA-MB-468, Breast Cancer
# Method: as §1, §2
# [6] = test system: OVCAR-4; assay: NCI-60 in vitro tumor cell screen, OVCAR-4; assay type: cell-based; conditions: Homo sapiens; OVCAR-4, Ovarian Cancer
# Method: as §1, §2
# [7] = test system: CCRF-CEM; assay: NCI-60 in vitro tumor cell screen, CCRF-CEM; assay type: cell-based; conditions: Homo sapiens, Leukemia
# Method: as §1, §2
# [8] = test system: intestinal normal-like differentiated Caco-2 cells; assay: MTT viability assay, differentiated Caco-2 cells, 24 h; assay type: cell-based, human; conditions: range 5 to 100 μM
# Method: Nortopsentin analogues, prepared as described above, were dissolved in dimethyl sulfoxide (DMSO) and then diluted in culture medium to have a DMSO concentration not exceeding 0.1%. HCT-116 and Caco-2 cell lines were purchased from American Type Culture Collection, Rockville, MD, USA and DMEM supplemented with […], […] bovine serum (FBS), penicillin (100 U/mL), streptomycin (100 μg/mL) and gentamicin (5 μg/mL). Cells were maintained in log phase by seeding twice a week at a density of 3 × 10^8 cells/L in humidified 5% CO2 atmosphere, at 37 °C. In all experiments, HCT-116 cells were made quiescent through overnight incubation before treatment with tested compounds or vehicle alone (control cells), while Caco-2 cells were treated 15 days after confluence, at which time the cells are differentiated in normal intestinal-like cells. […]
# Cytotoxic activity of the nortopsentin derivatives 1k and 4c was determined by the colorimetric assay based on the reduction of […] (MTT) to purple formazan by mitochondrial dehydrogenases. […] Cells were incubated 2 h at 37 °C, then medium was discarded by centrifugation, formazan blue formed in the cells dissolved in DMSO, and absorbance measured at 570 nm in a microplate reader (Bio-RAD, Hercules, CA, USA). […] GI50 was calculated by the curve of percent viability vs. concentration. […]
# [9] = test system: NCI-H322M; assay: NCI-60 in vitro tumor cell screen, NCI-H322M; assay type: cell-based; conditions: Homo sapiens, Non-Small Cell Lung Cancer
# Method: as §1, §2
# [10] = test system: HCT-15; assay: NCI-60 in vitro tumor cell screen, HCT-15; assay type: cell-based; conditions: Homo sapiens; HCT-15, Colon Cancer
# Method: as §1, §2
# [11] = test system: SW-620; assay: NCI-60 in vitro tumor cell screen, SW-620; assay type: cell-based; conditions: Homo sapiens; SW-620, Colon Cancer
# Method: as §1, §2
# [12] = test system: NCI-H226; assay: NCI-60 in vitro tumor cell screen, NCI-H226; assay type: cell-based; conditions: Homo sapiens; NCI-H226, Non-Small Cell Lung Cancer
# Method: as §1, §2
# [13] = test system: HCT-116 cells; assay: Mitochondrial transmembrane potential (DiOC6 flow cytofluorometry); assay type: cell-based, human; conditions: 24 h
# Method: Changes of mitochondrial transmembrane potential (Δψm) were assessed by flow cytofluorometry, using the cationic lipophilic dye 3,3′-dihexyloxacarbocyanine iodide(3) (DiOC6) (Molecular Probes, Inc., Life Technologies Italia, Monza, Italy) which accumulates in the mitochondrial matrix. Changes in mitochondrial membrane potential are indicated by a reduction in the DiOC6-induced fluorescence intensity. After 24 h treatment, HCT116 cells were incubated with DiOC6 at a 40 nmol/L final concentration, for 15 min at 37 °C. After centrifugation, cells were washed with PBS and suspended in 500 μL PBS. Fluorescent intensities were analysed in at least 1 × 10^4 cells for each sample.
# [14] = test system: A498; assay: NCI-60 in vitro tumor cell screen, A498; assay type: cell-based; conditions: Homo sapiens; A498, Renal Cancer
# Method: as §1, §2
# [15] = test system: RXF393; assay: NCI-60 in vitro tumor cell screen, RXF393; assay type: cell-based; conditions: Homo sapiens, RXF 393; RXF393, Renal Cancer
# Method: as §1, §2
# [16] = test system: HL-60(TB); assay: NCI-60 in vitro tumor cell screen, HL-60(TB); assay type: cell-based; conditions: Homo sapiens, Leukemia
# Method: as §1, §2
# [17] = test system: A549/ATCC; assay: NCI-60 in vitro tumor cell screen, A549/ATCC; assay type: cell-based; conditions: Homo sapiens, Non-Small Cell Lung Cancer
# Method: as §1, §2
# [18] = test system: HOP-92; assay: NCI-60 in vitro tumor cell screen, HOP-92; assay type: cell-based; conditions: Homo sapiens; HOP-92, Non-Small Cell Lung Cancer
# Method: as §1, §2
# [19] = test system: OVCAR-3; assay: NCI-60 in vitro tumor cell screen, OVCAR-3; assay type: cell-based; conditions: Homo sapiens; OVCAR-3, Ovarian Cancer
# Method: as §1, §2
# [20] = test system: HCC-2998; assay: NCI-60 in vitro tumor cell screen, HCC-2998; assay type: cell-based; conditions: Homo sapiens; HCC-2998, Colon Cancer
# Method: as §1, §2
# [21] = test system: SNB-75; assay: NCI-60 in vitro tumor cell screen, SNB-75; assay type: cell-based; conditions: Homo sapiens; SNB-75, CNS Cancer
# Method: as §1, §2
# [22] = test system: KM12; assay: NCI-60 in vitro tumor cell screen, KM12; assay type: cell-based; conditions: Homo sapiens; KM12, Colon Cancer
# Method: as §1, §2
# [23] = test system: 786-0; assay: NCI-60 in vitro tumor cell screen, 786-0; assay type: cell-based; conditions: Homo sapiens; 786-0, Renal Cancer
# Method: as §1, §2
# [24] = test system: SK-MEL-5; assay: NCI-60 in vitro tumor cell screen, SK-MEL-5; assay type: cell-based; conditions: Homo sapiens; SK-MEL-5, Melanoma
# Method: as §1, §2
# [25] = concentration GI30, control 3.9%
# [26] = concentration GI70, control 3.9%
Structure (SMILES),GI50 [1],GI50 [2],GI50 [3],GI50 [4],GI50 [5],GI50 [6],GI50 [7],effect on cell viability [8],GI50 [9],GI50 [10],GI50 [11],GI50 [12],"mitochondrial transmembrane potential (Δψm) loss, AQ [13, 25]","mitochondrial transmembrane potential (Δψm) loss, AQ [13, 26]",GI50 [14],GI50 [15],GI50 [16],GI50 [17],GI50 [18],GI50 [19],also measured
"Cn1cc(-c2csc(-c3c[nH]c4ncccc34)n2)c2cc(Br)cnc21 [Compound 1k, 5-Bromo-1-methyl-3-[2-(1H-pyrrolo[2,3-b]pyridin-3-yl)-1,3-thiazol-4-yl]-1H-pyrrolo[2,3-b]pyridine]",4060 nM,2210 nM,> 100000 nM,3720 nM,810 nM,2030 nM,6810 nM,did not affect the differentiated Caco-2 cell viability,> 100000 nM,13700 nM,4460 nM,1970 nM,26.0%,35.3%,10900 nM,2050 nM,> 100000 nM,2590 nM,5030 nM,2910 nM,GI50 [20]: > 100000 nM; GI50 [21]: 2180 nM; GI50 [22]: 5700 nM; GI50 [23]: 9650 nM; GI50 [24]: 2050 nM
"Clc1nccc2c(-c3csc(-c4c[nH]c5ccc(Br)cc45)n3)c[nH]c12 [Compound 4c, 3-[2-(5-Bromo-1H-indol-3-yl)-1,3-thiazol-4-yl]-7-chloro-1H-pyrrolo[2,3-c]pyridine]",2220 nM,2510 nM,4030 nM,3650 nM,1180 nM,3250 nM,3160 nM,did not affect the differentiated Caco-2 cell viability,3540 nM,1400 nM,1920 nM,2400 nM,3.8%,14.7%,1560 nM,1480 nM,2640 nM,3830 nM,2430 nM,3450 nM,GI50 [20]: 2220 nM; GI50 [21]: 2370 nM; GI50 [22]: 2150 nM; GI50 [23]: 1370 nM; GI50 [24]: 2610 nM
